Test results reported in ChEMBL document CHEMBL2073958, “Active transport of imatinib into and out of cells: implications for drug resistance” (Blood, 2004).

Target: ATP-dependent translocase ABCB1 (Homo sapiens, UniProt P08183)
Test: TP_TRANSPORTER: transepithelial transport in MDR1-transfected MDCKII cells
Assay type: functional, cell-based
Conditions: dog, mdck-ii

Chain of ATP-dependent translocase ABCB1 (P08183 whole entry): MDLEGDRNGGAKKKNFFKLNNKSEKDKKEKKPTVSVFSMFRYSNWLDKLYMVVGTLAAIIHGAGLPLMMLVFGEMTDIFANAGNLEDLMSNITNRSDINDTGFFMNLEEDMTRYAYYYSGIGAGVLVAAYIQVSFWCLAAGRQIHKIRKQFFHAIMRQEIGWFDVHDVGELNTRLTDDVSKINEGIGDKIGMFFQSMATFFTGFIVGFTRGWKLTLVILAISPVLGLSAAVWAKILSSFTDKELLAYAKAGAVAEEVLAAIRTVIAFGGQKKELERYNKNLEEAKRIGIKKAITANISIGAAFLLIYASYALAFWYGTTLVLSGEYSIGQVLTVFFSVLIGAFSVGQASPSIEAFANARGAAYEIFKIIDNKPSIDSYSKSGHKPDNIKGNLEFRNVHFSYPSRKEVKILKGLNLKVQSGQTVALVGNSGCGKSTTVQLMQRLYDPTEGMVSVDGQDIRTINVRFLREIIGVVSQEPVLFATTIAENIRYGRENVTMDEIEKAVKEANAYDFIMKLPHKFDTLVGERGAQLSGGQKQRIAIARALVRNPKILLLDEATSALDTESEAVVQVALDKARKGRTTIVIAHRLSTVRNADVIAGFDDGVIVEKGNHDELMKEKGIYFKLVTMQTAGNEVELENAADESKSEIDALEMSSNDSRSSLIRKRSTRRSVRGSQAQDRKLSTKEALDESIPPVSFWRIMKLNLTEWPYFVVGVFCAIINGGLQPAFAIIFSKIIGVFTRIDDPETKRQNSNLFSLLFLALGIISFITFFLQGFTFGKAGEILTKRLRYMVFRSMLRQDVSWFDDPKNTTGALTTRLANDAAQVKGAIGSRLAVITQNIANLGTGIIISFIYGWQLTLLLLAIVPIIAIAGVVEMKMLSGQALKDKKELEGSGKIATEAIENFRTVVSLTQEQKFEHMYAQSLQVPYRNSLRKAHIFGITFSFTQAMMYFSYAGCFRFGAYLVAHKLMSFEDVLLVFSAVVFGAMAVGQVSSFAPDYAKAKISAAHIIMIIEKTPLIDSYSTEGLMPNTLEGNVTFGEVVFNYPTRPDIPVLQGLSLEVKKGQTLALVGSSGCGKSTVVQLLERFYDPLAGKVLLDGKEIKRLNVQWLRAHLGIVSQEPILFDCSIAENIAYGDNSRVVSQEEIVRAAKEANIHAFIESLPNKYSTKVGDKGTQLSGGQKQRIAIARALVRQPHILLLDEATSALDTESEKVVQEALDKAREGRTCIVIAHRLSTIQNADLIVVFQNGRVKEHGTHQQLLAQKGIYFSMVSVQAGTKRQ

## Cc1ccc(NC(=O)c2ccc(CN3CCN(C)CC3)cc2)cc1Nc1nccc(-c2cccnc2)n1 [IMATINIB]
  Activity: substrate [+]
